Results: patent US20180200233A1, “COMPOSITIONS FOR PREVENTING CANCERS ASSOCIATED WITH HUMAN PAPILLOMA VIRUSES” (Loma Linda University, priority 2015, published 2018)

B1: TRAIL: tumor necrosis factor-related apoptosis-inducing ligand; extracellular domain of human TRAIL, His-tagged, expressed in E. coli (protein, UniProt P50591 39-281, looked up)
extracellular domain: TNELKQMQDKYSKSGIACFLKEDDSYWDPNDEESMNSPCWQVKWQLRQLVRKMILRTSEETISTVQEKQQNISPLVRERGPQRVAAHITGTRGRSNTLSSPNSKNEKALGRKINSWESSRSGHSFLSNLHLRNGELVIHEKGFYYIYSQTYFRFQEEIKENTKNDKQMVQYIYKYTSYPDPILLMKSARNSCWSKDAEYGLYSIYQGGIFELKENDRIFVSVTNEHLIDMDHEASFFGAFLVG
modifications: extracellular domain His tag
notes: tumor necrosis factor-related apoptosis-inducing ligand; extracellular domain of human TRAIL, His-tagged, expressed in E. coli

Assays:
GST-E6/His-caspase 8 = molecular target: T1, GST-E6/His-caspase 8 (Human papillomavirus type 16, UniProt P03126); experiment: AlphaScreen bead-based assay, GST-E6/His-caspase 8 binding; set-up: species or system HPV 16; conditions: for inhibition of E6/caspase 8 binding (in words): FIG. 2A, primary screen at 10 μM
T1 construct: made in house
T1 sequence (P03126 whole entry): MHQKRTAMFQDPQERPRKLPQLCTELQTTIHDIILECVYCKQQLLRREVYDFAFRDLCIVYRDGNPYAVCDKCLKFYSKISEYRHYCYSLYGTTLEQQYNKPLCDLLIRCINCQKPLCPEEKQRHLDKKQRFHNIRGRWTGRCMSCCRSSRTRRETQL
Description: (§1) FIGS. 2A-C are graphs providing data regarding inhibition of protein-protein interactions by 3-(1H-indol-1yl)propan-1-amine (1), three benzimidazole derivatives (2-4), and spinacine (5). Compounds, at the indicated concentrations (1.4 μM to 3.2 mM) were tested using a bead-based screening assay for their ability to inhibit three different protein/protein interactions: (FIG. 2A) GST-E6/His-caspase 8; (FIG. 2B) GST-E6/HisE6AP; and (FIG. 2C) GST-caspase 8/His-caspase 8. Binding in the presence of 1.4 μM of the test compound was set at 100%. Experiments were performed in triplicate, and error bars indicate the standard deviation.
HPV E6 binds to caspase 8 (Garnett, T. O., M. Filippova, and P. J. Duerksen-Hughes, Accelerated degradation of FADD and procaspase 8 in cells expressing human papilloma virus 16 E6 impairs TRAIL-mediated apoptosis. Cell death and differentiation, 2006. 13(11): p. 1915-26), and myricetin can block the E6/caspase 8 interaction in vitro (Yuan, C. H., et al., Small molecule inhibitors of the HPV16-E6 interaction with caspase 8. Bioorganic & medicinal chemistry letters, 2012. 22(5): p. 2125-9). A bead-based assay based on AlphaScreen™ technology (Perkin-Elmer) is used to identify inhibitors of the E6/caspase 8 interaction (Yuan, C. H., et al., Small molecule inhibitors of the HPV16-E6 interaction with caspase 8. Bioorganic & medicinal chemistry letters, 2012. 22(5): p. 2125-9). The ActiProbe 2K (2,000 compounds) library was screened using the same approach. […] Analysis of the structures and physical/chemical characteristics of those molecules led to the selection of five additional compounds: 3-(1H-indol-1-yl)propan-1-amine methanesulfonate (1), benzimidazole (2), 1H-benzimidazole-1-methanol (3), 2-(methoxymethyl)-1H-benzimidazole (4), and spinacine (5) for further study (FIG. 1).
(§2) To determine the dose-responsiveness of these five compounds, variable concentrations of those small molecules were first tested for their ability to inhibit E6/caspase binding. […] These molecules, which had been selected for their ability to interfere with E6/caspase 8 binding, were then tested to determine if they could also affect other interactions of E6, such as its binding to E6-associated protein (E6AP). The E6/E6AP interaction is required for the E6-mediated acceleration of p53 degradation (Huibregtse, J. M., M. Scheffner, and P. M. Howley, A cellular protein mediates association of p53 with the E6 oncoprotein of human papillomavirus types 16 or 18. The EMBO journal, 1991. 10(13): p. 4129-35).
Alpha-Screen™ technology was used to assess the interactions between GST-E6, GST-caspase 8, His-E6AP, and His-caspase 8. Binding assays were performed in white 384-well plates (Perkin-Elmer) in a total volume of 25 μl as previously described (Tungteakkhun, S. S., et al., The interaction between human papillomavirus type 16 and FADD is mediated by a novel E6 binding domain. Journal of virology, 2008. 82(19): p. 9600-14). Briefly, 5 μl (50 ng) of GST-E6 and 5 μl (87.5 ng) of His-caspase 8 were included in each reaction mixture with 5 μl blocking buffer (0.5 mg BSA, 0.5% Tween 20 in PBS) in the absence or presence of 10 μM of each test chemical. […] The mixture was incubated in the dark at room temperature overnight, and the emitted signal was detected using the Envision Multilabel plate reader (Perkin-Elmer). In the presence of test chemicals, the binding affinity was calculated as a percentage of the binding in the presence of carrier only (DMSO).

GST-E6/His-E6AP = molecular target: T2, GST-E6/His-E6AP (Human papillomavirus type 16, UniProt P03126); experiment: AlphaScreen bead-based assay, GST-E6/His-E6AP binding; set-up: species or system HPV 16; conditions: for inhibition of E6/E6AP interaction (in words): FIG. 2B
T2 construct: made in house
T2 sequence (P03126 whole entry): as above
Description: as §1, §2
(§3) Alpha-Screen™ technology was used to assess the interactions between GST-E6, GST-caspase 8, His-E6AP, and His-caspase 8. Binding assays were performed in white 384-well plates (Perkin-Elmer) in a total volume of 25 μl as previously described (Tungteakkhun, S. S., et al., The interaction between human papillomavirus type 16 and FADD is mediated by a novel E6 binding domain. Journal of virology, 2008. 82(19): p. 9600-14). Briefly, 5 μl (50 ng) of GST-E6 and 5 μl (87.5 ng) of His-caspase 8 were included in each reaction mixture with 5 μl blocking buffer (0.5 mg BSA, 0.5% Tween 20 in PBS) in the absence or presence of 10 μM of each test chemical. Members of the library were present at […] in DMSO. After a one-hour incubation of the mixture at room temperature, 5 μl donor beads and 5 μl acceptor beads (Perkin-Elmer) were added to each well according to the manufacturer's protocol. The mixture was incubated in the dark at room temperature overnight, and the emitted signal was detected using the Envision Multilabel plate reader (Perkin-Elmer). In the presence of test chemicals, the binding affinity was calculated as a percentage of the binding in the presence of carrier only (DMSO).

[1] = molecular target: T3, GST-caspase 8/His-caspase 8 (Homo sapiens, UniProt Q14790); experiment: AlphaScreen counter-screen, GST-caspase 8/His-caspase 8 binding; conditions: for inhibition of caspase 8/caspase 8 interaction (in words): FIG. 2C
T3 construct: pTriEx-Caspase-8 DED plasmids; fused on or other part: GST tag on one copy, His tag on the other (AlphaScreen bead handles)
T3 sequence (Q14790 whole entry, the tested form may be a part): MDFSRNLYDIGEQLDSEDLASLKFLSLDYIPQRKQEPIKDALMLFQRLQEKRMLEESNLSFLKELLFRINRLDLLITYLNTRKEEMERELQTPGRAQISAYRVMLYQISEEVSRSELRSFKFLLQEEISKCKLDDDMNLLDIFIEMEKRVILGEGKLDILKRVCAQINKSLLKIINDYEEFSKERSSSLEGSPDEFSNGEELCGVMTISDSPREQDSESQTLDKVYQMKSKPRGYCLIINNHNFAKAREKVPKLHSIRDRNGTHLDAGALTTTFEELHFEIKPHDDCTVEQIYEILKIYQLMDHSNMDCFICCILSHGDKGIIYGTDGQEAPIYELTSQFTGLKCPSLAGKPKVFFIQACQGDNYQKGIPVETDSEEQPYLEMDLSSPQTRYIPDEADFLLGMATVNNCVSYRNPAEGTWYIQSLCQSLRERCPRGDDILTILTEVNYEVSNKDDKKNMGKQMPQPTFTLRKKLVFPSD
Description: as §1
To ask whether this inhibition was specific, a counter-screening assay was employed the ability of candidates to inhibit the binding of GST-caspase 8 to His-caspase 8 was assessed; those that did were to be eliminated. In this counter-screening assay, the materials in each well were the same as in the primary screen, with the exception that GST-caspase 8 replaced GST-E6.
as §3

SiHa cells = experiment: MTT cell viability, SiHa cells, TRAIL-induced apoptosis; type: cell-based, human; conditions: SiHa cells in comparison to U2OS cells; with cycloheximide 5 μg/ml, FIG. 3A
Description: FIGS. 3A-E are graphs providing data regarding resistance of HPV^+ SiHa cells to TRAIL-, cisplatin- and […] apoptosis, in the presence and absence of small molecules as disclosed herein. (FIG. 3A) HPV^+ SiHa cells are resistant to TRAIL-induced apoptosis as compared to the human osteosarcoma cell line U2OS. Cells (2×10^4 cells per well) were seeded into a 96-well plate, allowed to incubate overnight, and then treated with indicated concentration of TRAIL in the presence of cycloheximide (5 μg/ml). The viability of cells was measured after overnight incubation using the MTT assay; the viability of cells untreated with TRAIL was set at 100% for each group. (FIG. 3B) The indicated concentrations of three small molecules were added to SiHa cells, and an MTT assay was preformed after overnight incubation. The viability of cells untreated with small molecules was set as 100%. (FIG. 3C) The indicated concentrations of myricetin or spinacine were added 4 h prior to TRAIL (100 ng/ml) in the presence of cycloheximide (5 μg/ml) and incubated at 37° C. overnight. The viability of cells untreated with small molecules was set at 100%. (FIG. 3D and FIG. 3E) SiHa cells (2×10^4 cells per well) were seeded into a 96-well plate and allowed to incubate overnight. 100 μM of myricetin and 50 μM of spinacine were added 4 h prior to either (FIG. 3D) doxorubicin or (FIG. 3E) cisplatin. Cell viability was measured after overnight incubation using the MTT assay, and the viability of cells untreated with either myricetin or spinacine was set at 100%. Experiments were performed in triplicate, and error bars indicate the standard deviation.
FIGS. 5A-B are graphs showing myricetin and spinacine (5) re-sensitized HPV^+, but not HPV^−, cells to treatment with TRAIL. SiHa (2×10^4 cells per well) and C33A cells (1×10^4 cells per well) were seeded into a 96-well plate and allowed to incubate overnight, then cells were pre-treated in the presence or absence of myricetin (100 μM) (FIG. 5A) or spinacine (50 μM) (FIG. 5B) for 4 h. The indicated concentration of TRAIL, along with cycloheximide (5 μg/ml) was added and cells were allowed to incubate overnight. Cell viability was measured by MTT assay, and the viability of cells untreated with TRAIL was set at 100%. Experiments were performed in triplicate, and error bars indicate the standard deviation.
The molecules were then tested to determine whether those that block E6/caspase 8 binding in vitro could also act in the context of a cell. SiHa cells are an HPV^+ cell line, derived from a cervical carcinoma, which serves as a commonly used model for HPV-associated malignancies. To determine whether HPV^+ SiHa cells are resistant to TRAIL-induced apoptosis, SiHa cells were treated with TRAIL and cell viability was assessed. TRAIL-sensitive, HPV^− U2OS cells served as a positive control. […] Myricetin and/or spinacine were tested to determine if they could sensitize these HPV^+ cells to TRAIL-induced apoptosis. […] Table 2 lists and compares the concentrations of the three tested compounds required to induce death in 50% of SiHa cells in the presence or absence of TRAIL.
The extracellular domain of human TRAIL was cloned into a pTriEx expression plasmid containing N-terminal Hisx6 tag. His-TRAIL was expressed in the E. coli BL-21 pLys strain and purified as previously described. Doxorubicin and cisplatin were purchased from Sigma. His-TRAIL, doxorubicin, and cisplatin were diluted in PBS to the desired concentration before using. To measure cell survival following treatment with TRAIL, cisplatin and doxorubicin, SiHa (2×10^4/well), C33A (1×10^4/well), and HNSCC cells (2×10^4/well) were seeded into 96-well plates and allowed to adhere overnight. Small molecules at the desired concentration were added and incubated at 37° C. for 4 h. As indicated, TRAIL, cisplatin or doxorubicin was then added. […]

[2] = test system: UPCI-SCC90-UP-Clone 35 (#90) cells; experiment: MTT cell viability, HPV+ HNSCC cell line #90 with TRAIL; type: cell-based; conditions: all selected cell lines; TRAIL as high as 100 ng/ml, FIG. 7A
Description: FIGS. 7A-E are graphs showing myricetin and spinacine (5) re-sensitized HPV^+, but not HPV^−, head and neck cancer cell lines to treatment with TRAIL. (FIG. 7A) Both HPV^− and HPV^+ HN cancer cell lines display resistance to TRAIL treatment. HPV^− (#84) (Myricetin—FIG. 7B; Spinacine—FIG. 7C) and HPV^+ (#90) (FIG. 7D; Spinacine—FIG. 7E) head and neck cancer cell lines (2×10^4 cells per well) were seeded into 96-well plates and allowed to incubate overnight, then cells were pre-treated with myricetin (0-200 μM) or spinacine (0-100 μM) for 4 h. […] of TRAIL, along with cycloheximide (5 μg/ml) was added and cells were allowed to incubate overnight. Cell viability was measured by the MTT assay, and the viability of cells untreated with small molecules was set at 100%. Experiments were performed in triplicate, and error bars indicate the standard deviation.
As shown above, myricetin and spinacine sensitize SiHa cells to TRAIL and chemotherapy drugs. […] Other types of HPV^+ cancer cells were examined, and in particular, head and neck squamous cell carcinoma (HNSCC) cells can also be sensitized in this manner. […] For the combination experiments, 50 ng/ml TRAIL was applied in combination with either myricetin (0-200 μM) or spinacine (0-100 μM). […] In contrast […], TRAIL-induced cell death was enhanced 30% in UPCI-SCC90-UP-Clone 35, #90. Furthermore, 40 μM spinacine was able to enhance TRAIL-induced cell death in the HPV^+ #90 cell lines up to 50%.
The extracellular domain of human TRAIL was cloned into a pTriEx expression plasmid containing N-terminal Hisx6 tag. His-TRAIL was expressed in the E. coli BL-21 pLys strain and purified as previously described. Doxorubicin and cisplatin were purchased from Sigma. His-TRAIL, doxorubicin, and cisplatin were diluted in PBS to the desired concentration before using. […] All experiments were repeated at least three times (three biological replicates, carried out on different days), with each experimental group measured in triplicate within each of these individual experiments. […]

[3] = bead-based assay, compounds tested 1.4 μM to 3.2 mM

Molecule | inhibition of E6/caspase 8 binding (in words) (GST-E6/His-caspase 8) | inhibition of E6/E6AP interaction (in words) (GST-E6/His-E6AP) | inhibition of caspase 8/caspase 8 interaction (in words) [1] | other results
c1ccc2[nH]cnc2c1 [Compound 2, benzimidazole] | dose-dependent inhibition | could also inhibit the E6/E6AP interaction | able to inhibit the caspase 8/caspase 8 interaction | 
CS(=O)(=O)O.NCCCn1ccc2ccccc21 [Compound 1, 3-(1H-indol-1-yl)propan-1-amine methanesulfonate] | dose-dependent inhibition | could also inhibit the E6/E6AP interaction | able to inhibit the caspase 8/caspase 8 interaction | 
COCc1nc2ccccc2[nH]1 [Compound 4, 2-(methoxymethyl)-1H-benzimidazole] |  |  |  | EC50 for GST-E6/His-caspase 8 interaction (GST-E6/His-caspase 8; [3]): No inhibition; EC50 for GST-E6/His-E6AP interaction (GST-E6/His-E6AP; [3]): No inhibition; EC50 for GST-caspase 8/His-caspase 8 interaction ([1]; compounds tested 1.4 μM to 3.2 mM): No inhibition
B1 |  |  |  | response of cells to TRAIL alone (in words) (SiHa cells): relatively resistant; response of HNSCC cell lines to TRAIL alone (in words) [2]: resistance
